Reference: PubChem BioAssay AID2060326 (Molecular Pharmacology Branch, DTP, NCI, 2025)

System: MDA-MB-468 multi-cell spheroids, viability
Assay: Anticancer human tumor MDA-MB-468 cell line growth inhibition [IpAb];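 further: spheroids exposed to agents for seven days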;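 on viability, T/C: 100% = DMSO vehicle control viability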
Conditions: for IC50: curve of first compound; for viability, T/C: stronger effect = lower value; active means viability on the fitted dose curve at most 10% of control; inactive means the rest
Summary of the method: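 Combinations with ipatasertib or abemaciclib were tested on tumour spheroids holding HUVEC (25%) and MSC (15%) alongside 60% malignant cells. Top concentration was at or near clinical Cmax (10 microM if undefined), descending in half-log steps.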

[1] = second compound 0.01 µM, first compound 0.00949 µM
[2] = second compound 0.01 µM, first compound 0.03 µM
[3] = second compound 0.01 µM, first compound 0.0949 µM
[4] = second compound 0.01 µM, first compound 0.3 µM
[5] = second compound 0.0316 µM, first compound 0.00949 µM
[6] = second compound 0.0316 µM, first compound 0.03 µM
[7] = second compound 0.0316 µM, first compound 0.0949 µM
[8] = second compound 0.0316 µM, first compound 0.3 µM
[9] = second compound 0.1 µM, first compound 0.00949 µM
[10] = second compound 0.1 µM, first compound 0.03 µM
[11] = second compound 0.1 µM, first compound 0.0949 µM
[12] = second compound 0.1 µM, first compound 0.3 µM
[13] = second compound 0.316 µM, first compound 0.00949 µM
[14] = second compound 0.316 µM, first compound 0.03 µM
[15] = second compound 0.316 µM, first compound 0.0949 µM
[16] = second compound 0.316 µM, first compound 0.3 µM
[17] = second compound 1 µM, first compound 0.00949 µM
[18] = second compound 1 µM, first compound 0.03 µM
[19] = second compound 1 µM, first compound 0.0949 µM
[20] = second compound 1 µM, first compound 0.3 µM
[21] = second compound 0.01 µM, first compound 0.0316 µM
[22] = second compound 0.01 µM, first compound 0.1 µM
[23] = second compound 0.01 µM, first compound 0.316 µM
[24] = second compound 0.01 µM, first compound 1 µM
[25] = second compound 0.01 µM, first compound 3.16 µM
[26] = second compound 0.01 µM, first compound 10 µM
[27] = second compound 0.0316 µM, first compound 0.0316 µM
[28] = second compound 0.0316 µM, first compound 0.1 µM
[29] = second compound 0.0316 µM, first compound 0.316 µM
[30] = second compound 0.0316 µM, first compound 1 µM
[31] = second compound 0.0316 µM, first compound 3.16 µM
[32] = second compound 0.0316 µM, first compound 10 µM
[33] = second compound 0.1 µM, first compound 0.0316 µM
[34] = second compound 0.1 µM, first compound 0.1 µM
[35] = second compound 0.1 µM, first compound 0.316 µM
[36] = second compound 0.1 µM, first compound 1 µM
[37] = second compound 0.1 µM, first compound 3.16 µM
[38] = second compound 0.1 µM, first compound 10 µM
[39] = second compound 0.316 µM, first compound 0.0316 µM
[40] = second compound 0.316 µM, first compound 0.1 µM
[41] = second compound 0.316 µM, first compound 0.316 µM
[42] = second compound 0.316 µM, first compound 1 µM
[43] = second compound 0.316 µM, first compound 3.16 µM
[44] = second compound 0.316 µM, first compound 10 µM
[45] = second compound 1 µM, first compound 0.0316 µM
[46] = second compound 1 µM, first compound 0.1 µM
[47] = second compound 1 µM, first compound 0.316 µM
[48] = second compound 1 µM, first compound 1 µM
[49] = second compound 1 µM, first compound 3.16 µM
[50] = second compound 1 µM, first compound 10 µM

CC(=O)c1c(C)c2cnc(Nc3ccc(N4CCNCC4)cn3)nc2n(C2CCCC2)c1=O + CCN1CCN(Cc2ccc(Nc3ncc(F)c(-c4cc(F)c5nc(C)n(C(C)C)c5c4)n3)nc2)CC1
> 0.3 µM: IC50 (second compound 0.01 µM) | IC50 (second compound 0.0316 µM) | IC50 (second compound 0.1 µM) | IC50 (second compound 0.316 µM) | IC50 (second compound 1 µM)
inactive: viability, T/C (second compound 0.01 µM, first compound 0.000949 µM) 99.7% | viability, T/C (second compound 0.01 µM, first compound 0.003 µM) 97.4% | viability, T/C [1] 93.6% | viability, T/C [2] 88.4% | viability, T/C [3] 84% | viability, T/C [4] 96.5% | viability, T/C (second compound 0.0316 µM, first compound 0.000949 µM) 92.2% | viability, T/C (second compound 0.0316 µM, first compound 0.003 µM) 99.2% | viability, T/C [5] 85.5% | viability, T/C [6] 89.1% | viability, T/C [7] 82.6% | viability, T/C [8] 86.6% | viability, T/C (second compound 0.1 µM, first compound 0.000949 µM) 101% | viability, T/C (second compound 0.1 µM, first compound 0.003 µM) 96.1% | viability, T/C [9] 90.8% | viability, T/C [10] 92.8% | viability, T/C [11] 85.3% | viability, T/C [12] 95.7% | viability, T/C (second compound 0.316 µM, first compound 0.000949 µM) 106% | viability, T/C (second compound 0.316 µM, first compound 0.003 µM) 93.9% | viability, T/C [13] 93.7% | viability, T/C [14] 83.7% | viability, T/C [15] 88% | viability, T/C [16] 108% | viability, T/C (second compound 1 µM, first compound 0.000949 µM) 74.7% | viability, T/C (second compound 1 µM, first compound 0.003 µM) 75% | viability, T/C [17] 77.5% | viability, T/C [18] 71.4% | viability, T/C [19] 83.1% | viability, T/C [20] 74.6%

CC(C)(C)c1cnc(CSc2cnc(NC(=O)C3CCNCC3)s2)o1 + CCN1CCN(Cc2ccc(Nc3ncc(F)c(-c4cc(F)c5nc(C)n(C(C)C)c5c4)n3)nc2)CC1
0.0426 µM: IC50 (second compound 1 µM)
active: viability, T/C [4] 0.29% | viability, T/C (second compound 0.01 µM, first compound 0.949 µM) 0.19% | viability, T/C (second compound 0.01 µM, first compound 3 µM) 0.31% | viability, T/C [8] 0.24% | viability, T/C (second compound 0.0316 µM, first compound 0.949 µM) 0.19% | viability, T/C (second compound 0.0316 µM, first compound 3 µM) 0.32% | viability, T/C [12] 0.22% | viability, T/C (second compound 0.1 µM, first compound 0.949 µM) 0.22% | viability, T/C (second compound 0.1 µM, first compound 3 µM) 0.29% | viability, T/C [16] 0.32% | viability, T/C (second compound 0.316 µM, first compound 0.949 µM) 0.26% | viability, T/C (second compound 0.316 µM, first compound 3 µM) 0.31% | viability, T/C [19] 2.25% | viability, T/C [20] 0.45% | viability, T/C (second compound 1 µM, first compound 0.949 µM) 0.35% | viability, T/C (second compound 1 µM, first compound 3 µM) 0.37%
inactive: viability, T/C [1] 110% | viability, T/C [2] 102% | viability, T/C [3] 55.2% | viability, T/C [5] 94.8% | viability, T/C [6] 92% | viability, T/C [7] 42.3% | viability, T/C [9] 93.6% | viability, T/C [10] 91.7% | viability, T/C [11] 59.9% | viability, T/C [13] 90.8% | viability, T/C [14] 89.8% | viability, T/C [15] 27.1% | viability, T/C [17] 85.6% | viability, T/C [18] 70.8%
0.0794 µM: IC50 (second compound 0.0316 µM)
0.105 µM: IC50 (second compound 0.01 µM)
0.115 µM: IC50 (second compound 0.1 µM)
0.0623 µM: IC50 (second compound 0.316 µM)

Cc1nc(NC(=O)N2CCCC2C(N)=O)sc1-c1ccnc(C(C)(C)C(F)(F)F)c1 (stereo not given) + CCN1CCN(Cc2ccc(Nc3ncc(F)c(-c4cc(F)c5nc(C)n(C(C)C)c5c4)n3)nc2)CC1
7.82 µM: IC50 (second compound 0.01 µM)
3.89 µM: IC50 (second compound 0.316 µM)
1.29 µM: IC50 (second compound 1 µM)
inactive: viability, T/C [21] 108% | viability, T/C [22] 90.6% | viability, T/C [23] 102% | viability, T/C [24] 79.2% | viability, T/C [25] 102% | viability, T/C [26] 37.4% | viability, T/C [27] 77.8% | viability, T/C [28] 83.4% | viability, T/C [29] 68% | viability, T/C [30] 86% | viability, T/C [31] 69% | viability, T/C [32] 24.4% | viability, T/C [33] 99.8% | viability, T/C [34] 91.9% | viability, T/C [35] 98.9% | viability, T/C [36] 86% | viability, T/C [37] 67.3% | viability, T/C [38] 23.7% | viability, T/C [39] 91% | viability, T/C [40] 89.7% | viability, T/C [41] 77.7% | viability, T/C [42] 79.3% | viability, T/C [43] 57.2% | viability, T/C [44] 16.5% | viability, T/C [45] 57.9% | viability, T/C [46] 68.1% | viability, T/C [47] 62.9% | viability, T/C [48] 55.1% | viability, T/C [49] 30.6%
5.28 µM: IC50 (second compound 0.0316 µM)
active: viability, T/C [50] 6.3%
4.97 µM: IC50 (second compound 0.1 µM)

Cn1nccc1Nc1nccc(-c2ccn(C(CO)c3ccc(Cl)c(F)c3)c(=O)c2)n1 (stereo not given) + CCN1CCN(Cc2ccc(Nc3ncc(F)c(-c4cc(F)c5nc(C)n(C(C)C)c5c4)n3)nc2)CC1
4.7 µM: IC50 (second compound 0.0316 µM)
4.19 µM: IC50 (second compound 0.316 µM)
4.42 µM: IC50 (second compound 1 µM)
4.35 µM: IC50 (second compound 0.01 µM)
inactive: viability, T/C [21] 92% | viability, T/C [22] 83% | viability, T/C [23] 86% | viability, T/C [24] 77.7% | viability, T/C [25] 70% | viability, T/C [27] 93.3% | viability, T/C [28] 77.9% | viability, T/C [29] 71% | viability, T/C [30] 84.6% | viability, T/C [31] 73.1% | viability, T/C [33] 93.6% | viability, T/C [34] 87.5% | viability, T/C [35] 86.2% | viability, T/C [36] 83.1% | viability, T/C [37] 58.5% | viability, T/C [39] 104% | viability, T/C [40] 92.2% | viability, T/C [41] 89.2% | viability, T/C [42] 78.7% | viability, T/C [43] 68.2% | viability, T/C [44] 9.01% | viability, T/C [45] 86.5% | viability, T/C [46] 78.8% | viability, T/C [47] 74.5% | viability, T/C [48] 85.9% | viability, T/C [49] 64.2% | viability, T/C [50] 15.3%
active: viability, T/C [26] 3.11% | viability, T/C [32] 6.23% | viability, T/C [38] 5.62%
3.83 µM: IC50 (second compound 0.1 µM)
